Measurements published in the NIST ThermoML archive (doi:10.1016/j.jct.2012.11.004).

Test: mn = molality of the nth substance listed, in mol/kg
Details: 101 kPa, Liquid; for mass density: Vibrating tube method; for speed of sound: Pulse-echo method

O=S(=O)([O-])C(F)(F)F.O=S(=O)([O-])C(F)(F)F.O=S(=O)([O-])C(F)(F)F.[La+3] [lanthanum(III) trifluoromethanesulfonate] + CC(=O)N(C)C
Details	mass density, 283.15 K [kg/m3]	mass density, 293.15 K [kg/m3]	mass density, 298.15 K [kg/m3]	mass density, 303.15 K [kg/m3]	mass density, 313.15 K [kg/m3]	mass density, 323.15 K [kg/m3]	mass density, 333.15 K [kg/m3]	speed of sound, 298.15 K [m/s]
m1 = 0.02085	958.67	949.47	944.86	940.26	931.01	921.74	912.42	–
m1 = 0.02801	961.64	952.45	947.84	943.23	933.99	924.71	915.39	–
m1 = 0.03761	965.63	956.43	951.81	947.21	937.97	928.7	919.38	–
m1 = 0.04797	969.94	960.74	956.14	951.53	942.29	933.02	923.71	–
m1 = 0.05797	974.13	964.94	960.34	955.73	946.49	937.22	927.91	–
m1 = 0.07244	980.27	971.08	966.48	961.88	952.67	943.36	934	1455.9
m1 = 0.09378	989.43	980.24	975.64	971.03	961.79	952.5	943.16	–
m1 = 0.1127	997.64	988.45	983.85	979.24	969.99	960.7	951.36	–
m1 = 0.1302	1005.34	996.15	991.55	986.95	977.69	968.39	959.05	–
m1 = 0.1523	1015.25	1006.06	1001.46	996.85	987.59	978.29	968.93	–
m1 = 0.1712	1023.81	1014.62	1010.03	1005.42	996.16	986.84	977.5	–

O=S(=O)([O-])C(F)(F)F.[Na+] [sodium trifluoromethanesulfonate] + CC(=O)N(C)C
Details	mass density, 283.15 K [kg/m3]	mass density, 293.15 K [kg/m3]	mass density, 298.15 K [kg/m3]	mass density, 303.15 K [kg/m3]	mass density, 313.15 K [kg/m3]	mass density, 323.15 K [kg/m3]	mass density, 333.15 K [kg/m3]	speed of sound, 298.15 K [m/s]
m1 = 0.03102	953.06	943.85	939.25	934.64	925.39	916.13	906.83	–
m1 = 0.04251	954.18	944.96	940.36	935.76	926.52	917.26	907.96	–
m1 = 0.05604	955.5	946.28	941.68	937.08	927.84	918.59	909.29	1456
m1 = 0.07266	957.11	947.9	943.3	938.69	929.46	920.21	910.92	1455.8
m1 = 0.08844	958.64	949.43	944.83	940.23	931	921.75	912.46	1455.7
m1 = 0.1113	960.86	951.66	947.06	942.45	933.22	923.98	914.7	1455.5
m1 = 0.1446	964.1	954.89	950.29	945.68	936.46	927.21	917.94	1455.2
m1 = 0.174	966.97	957.75	953.15	948.54	939.35	930.09	920.85	1455
m1 = 0.2018	969.69	960.49	955.89	951.28	942.06	932.83	923.57	1454.7
m1 = 0.2378	973.2	964	959.39	954.79	945.58	936.36	927.11	1454.3
m1 = 0.2675	976.18	966.97	962.37	957.77	948.55	939.32	930.07	1453.9
